Measured values published in patent US5760063A, “Arylhydrazone derivatives useful as antibacterial agents” (Scriptgen Pharmaceuticals, Inc., priority 1996, dated 1998).
In brackets after ≈: the same amount, converted by molar mass.

What was measured:
[1] = target: E. coli RNAP (Escherichia coli, UniProt P0A8T7+P0A8V2); experiment: High throughput in vitro transcription (RNAP) assay; assay type: biochemical; settings: 60 minutes incubation
Method: (I) High Throughput in vitro Transcription (RNAP) Assay
The reagents are added to the DMSO/compound with a Tomtec Quadra. The Quadra acts as 96-tip pipetman, combined with a movable base. The reagents and compounds are stored and used in 96-well polypropylene u-bottom microtiter plates.
The Quadra is run in backfill mode (filled with water). A total of […] of reagents must be added. This is divided into a 20 ml RNAP/Txn Buffer mix and a 25 ml DNA/NTP/water mix. The RNAP mix is added first to allow the drug a chance to interact with RNAP before RNAP interacts with DNA (this interaction lasts less than 5 seconds). The mixing of the reagents is done with a multivortexer after all reagents have been added (setting 5.5 for 90 seconds).
After incubation for 60 minutes, the reaction is stopped with 150 ml 10% TCA, which also precipitates the RNA. The RNA is allowed to sit a room temperature for approximately 15-45 minutes (until all plates have been stopped and the cell harvester has been set up).
The TCA precipitated RNA is transferred to double-thick glass filtermats using a Tomtec cell harvester. The wells of the microtiter plate are washed with 5% TCA and sucked through the same filtermat. Two additional washes with 5 % TCA solution are sufficient to reduce background counts.
The filters are then dried at 60° for 60 minutes. It is important to remove all of the liquid, or this may quench the scintillation fluid when it is added.
The dry filters are sealed into plastic bags with a heat-sealer. A hole is cut in one corner and 12 ml of "β-plate scintillant" is added to each bag.
When choosing a scintillation counting program on the Wallac Microb 1450, it is important to choose one which counts using the appropriate window for P^32. Each well is counted for 3 seconds. The data obtained is used to calculate an lC50 value.

[2] = system: S. aureus; experiment: MIC assay, S. aureus; assay type: cell-based; settings: Staphylococcus aureus, 18 h, read-out: S. Aur. MIC
Method: (§1) Compounds were prepared to a concentration of 10 mM in 100% DMSO. These were then diluted to 200 μM with 50 mM tris. A 2% DMSO solution was prepared in 50 mM tris as well as a 20 μM solution of rifampicin in 2% DMSO with 50 mM tris. With each compound and control, one to one dilutions were made in a serial dilution fashion across microtiter plates with 50 mM tris. The highest concentration was 200 μM for each compound and 20 μM for rifampicin. The lowest concentrations were 1.562 μM and 0.156 μM for the compounds and rifampicin respectively.
(§2) S. aureus, E. coli, Psuedomonas aeruginosa, Enterobacter cloacae, and Enterococcus faecium cells had been grown up in a shake culture overnight at 37° C. in LB medium. These were diluted 500 fold and added to the compounds at an equal volume. The highest compound concentration was now 100 μM, and 10 μM for rifampicin. Baseline O.D. readings were taken at 595 nm utilizing a Bio-Rad 3550-UV plate reader. A second reading was taken after 18 hours.

[3] = system: Psuedomonas aeruginosa; experiment: MIC assay, Psuedomonas aeruginosa (PS); assay type: cell-based; settings: OD 595 nm after 18 hours
Method: as §1, §2

[4] = system: Enterobacter cloacae; experiment: MIC assay, Enterobacter cloacae (CL); assay type: cell-based; settings: OD 595 nm after 18 hours
Method: as §1, §2

[5] = system: Enterococcus faecium; experiment: MIC assay, Enterococcus faecium (FAE); assay type: cell-based; settings: OD 595 nm after 18 hours
Method: as §1, §2

Sequence of E. coli RNAP (P0A8V2 whole entry): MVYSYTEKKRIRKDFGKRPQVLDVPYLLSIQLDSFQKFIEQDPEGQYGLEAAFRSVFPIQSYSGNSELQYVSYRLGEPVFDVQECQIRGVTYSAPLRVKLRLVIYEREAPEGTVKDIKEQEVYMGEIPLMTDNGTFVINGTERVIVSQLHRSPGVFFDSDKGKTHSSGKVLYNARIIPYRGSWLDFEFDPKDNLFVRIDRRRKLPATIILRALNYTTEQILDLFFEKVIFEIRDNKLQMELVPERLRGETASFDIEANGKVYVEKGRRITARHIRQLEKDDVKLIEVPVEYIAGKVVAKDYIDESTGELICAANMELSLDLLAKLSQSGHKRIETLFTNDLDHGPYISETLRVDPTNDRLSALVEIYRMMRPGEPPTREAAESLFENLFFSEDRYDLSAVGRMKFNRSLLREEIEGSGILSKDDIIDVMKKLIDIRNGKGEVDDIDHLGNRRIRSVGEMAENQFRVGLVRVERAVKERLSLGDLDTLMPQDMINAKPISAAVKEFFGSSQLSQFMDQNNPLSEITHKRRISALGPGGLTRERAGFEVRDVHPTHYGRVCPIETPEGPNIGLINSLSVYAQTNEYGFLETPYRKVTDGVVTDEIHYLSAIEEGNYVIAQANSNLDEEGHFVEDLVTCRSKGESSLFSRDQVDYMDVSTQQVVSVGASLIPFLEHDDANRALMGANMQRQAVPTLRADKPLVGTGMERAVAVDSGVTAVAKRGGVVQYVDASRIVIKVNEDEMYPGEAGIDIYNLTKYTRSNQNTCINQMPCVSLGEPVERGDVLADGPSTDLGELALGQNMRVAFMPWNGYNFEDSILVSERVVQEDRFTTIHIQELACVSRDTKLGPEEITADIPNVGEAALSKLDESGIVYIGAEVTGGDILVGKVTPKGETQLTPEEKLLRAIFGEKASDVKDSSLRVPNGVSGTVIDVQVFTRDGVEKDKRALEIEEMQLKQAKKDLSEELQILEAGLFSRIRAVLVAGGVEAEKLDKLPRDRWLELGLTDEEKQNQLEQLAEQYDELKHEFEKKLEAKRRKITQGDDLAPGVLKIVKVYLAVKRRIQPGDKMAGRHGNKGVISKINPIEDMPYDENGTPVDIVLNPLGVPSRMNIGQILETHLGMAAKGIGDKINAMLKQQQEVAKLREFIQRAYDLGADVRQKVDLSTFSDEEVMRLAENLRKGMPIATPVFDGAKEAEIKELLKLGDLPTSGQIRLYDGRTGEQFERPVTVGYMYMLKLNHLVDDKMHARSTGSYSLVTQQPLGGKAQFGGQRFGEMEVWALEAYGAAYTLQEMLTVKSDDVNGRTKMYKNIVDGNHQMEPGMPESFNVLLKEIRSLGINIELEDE
Sequence of E. coli RNAP (P0A8T7 whole entry): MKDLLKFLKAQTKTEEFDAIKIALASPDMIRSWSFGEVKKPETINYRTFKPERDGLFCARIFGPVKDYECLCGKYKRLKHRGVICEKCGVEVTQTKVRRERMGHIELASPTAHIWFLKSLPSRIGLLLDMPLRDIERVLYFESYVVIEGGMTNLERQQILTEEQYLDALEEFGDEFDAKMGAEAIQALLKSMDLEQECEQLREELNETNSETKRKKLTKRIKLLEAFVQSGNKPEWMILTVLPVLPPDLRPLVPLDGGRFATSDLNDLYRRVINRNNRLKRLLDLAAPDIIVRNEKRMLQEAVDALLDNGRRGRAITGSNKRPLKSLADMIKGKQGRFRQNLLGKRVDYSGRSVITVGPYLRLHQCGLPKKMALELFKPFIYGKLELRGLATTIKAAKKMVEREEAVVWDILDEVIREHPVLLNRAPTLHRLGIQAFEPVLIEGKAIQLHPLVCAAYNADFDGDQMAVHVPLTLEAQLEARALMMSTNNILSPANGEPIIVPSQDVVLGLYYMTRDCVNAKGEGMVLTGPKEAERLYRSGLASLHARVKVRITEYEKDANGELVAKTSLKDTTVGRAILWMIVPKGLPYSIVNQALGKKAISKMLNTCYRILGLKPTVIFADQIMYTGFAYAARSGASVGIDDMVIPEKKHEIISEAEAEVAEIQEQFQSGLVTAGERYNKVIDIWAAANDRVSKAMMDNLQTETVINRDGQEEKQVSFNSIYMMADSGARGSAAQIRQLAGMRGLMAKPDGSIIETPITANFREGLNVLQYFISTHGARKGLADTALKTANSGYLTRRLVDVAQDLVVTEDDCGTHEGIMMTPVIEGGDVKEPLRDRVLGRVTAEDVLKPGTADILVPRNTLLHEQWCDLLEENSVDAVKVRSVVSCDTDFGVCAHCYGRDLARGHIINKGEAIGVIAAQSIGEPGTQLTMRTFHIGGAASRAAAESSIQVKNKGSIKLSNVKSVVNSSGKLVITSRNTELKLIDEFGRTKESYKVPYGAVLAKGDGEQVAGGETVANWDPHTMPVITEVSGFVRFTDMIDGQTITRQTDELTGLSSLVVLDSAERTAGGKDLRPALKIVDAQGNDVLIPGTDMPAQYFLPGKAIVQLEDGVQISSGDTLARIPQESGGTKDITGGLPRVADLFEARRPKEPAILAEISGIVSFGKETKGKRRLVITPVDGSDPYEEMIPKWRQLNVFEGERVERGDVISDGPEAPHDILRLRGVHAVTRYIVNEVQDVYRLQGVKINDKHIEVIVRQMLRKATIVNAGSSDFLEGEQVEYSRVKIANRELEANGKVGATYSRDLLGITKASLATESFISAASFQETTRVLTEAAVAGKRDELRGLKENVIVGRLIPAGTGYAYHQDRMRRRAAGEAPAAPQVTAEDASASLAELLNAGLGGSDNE
Sequence of E. coli RNAP (P0A7Z4 whole entry partner): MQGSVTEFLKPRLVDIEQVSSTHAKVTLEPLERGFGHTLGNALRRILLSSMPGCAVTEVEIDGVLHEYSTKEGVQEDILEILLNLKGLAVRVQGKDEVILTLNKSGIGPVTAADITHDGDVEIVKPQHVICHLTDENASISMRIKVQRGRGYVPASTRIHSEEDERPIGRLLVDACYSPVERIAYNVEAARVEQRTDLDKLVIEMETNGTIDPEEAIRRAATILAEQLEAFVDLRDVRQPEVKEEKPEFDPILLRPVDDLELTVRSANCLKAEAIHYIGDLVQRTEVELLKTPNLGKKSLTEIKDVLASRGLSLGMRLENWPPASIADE

Structure (SMILES) | IC50 [1] [µM] | MIC [2] [µM] | MIC [3] [µM] | MIC [4] [µM] | MIC [5] [µM]
CS(=O)(=O)c1ccc(NN=C(C#N)C(=O)c2ccc(Cl)cc2)cc1 [Example 1] | < 0.5 | > 10 | > 10 | < 0.5 | > 10
CS(=O)(=O)C(=NNc1ccc([N+](=O)[O-])cc1)C(=O)c1ccc(Cl)cc1 [Example 2] | 0.5 to 10 |  | > 10 | 0.5 to 10 (≈ 0.191 to 3.82 µg/mL) | > 10
CC(=O)N(N=C(C#N)C(=O)c1ccc(Cl)cc1)c1ccc([N+](=O)[O-])cc1 [Example 3] | 0.5 to 10 | > 10 | > 10 | 0.5 to 10 (≈ 0.185 to 3.71 µg/mL) | > 10
CSc1ccc(NN=C(C#N)C(=O)c2ccc(Cl)cc2)cc1 [Example 4] | 0.5 to 10 | > 10 | > 10 | 0.5 to 10 (≈ 0.165 to 3.3 µg/mL) | > 10
C[S+]([O-])c1ccc(NN=C(C#N)C(=O)c2ccc(Cl)cc2)cc1 (stereo not shown) [Example 5] | 0.5 to 10 | > 10 | > 10 | 0.5 to 10 (≈ 0.173 to 3.46 µg/mL) | > 10
N#CC(=NNc1ccc([N+](=O)[O-])cc1)C(=O)c1ccc(-c2ccccc2)cc1 [Example 6] | 0.5 to 10 | > 10 | > 10 | 0.5 to 10 (≈ 0.185 to 3.7 µg/mL) | 1 (≈ 0.37 µg/mL)
CS(=O)(=O)Nc1ccc(NN=C(C#N)C(=O)c2ccc(Cl)cc2)cc1 [Example 7] | 0.5 to 10 |  | > 10 | 0.5 to 10 (≈ 0.188 to 3.77 µg/mL) | > 10
N#CC(=NNc1ccc([N+](=O)[O-])cc1)C(=O)c1ccc(Cl)nc1 [Example 8] | 0.5 to 10 |  |  |  | 
N#CC(=NNc1ccc(C(=O)O)cc1)C(=O)c1ccc(Cl)cc1 [Example 9] | > 10 |  | > 10 | > 10 | > 10
CC(=O)Nc1ccc(NN=C(C#N)C(=O)c2ccc(Cl)cc2)cc1 [Example 10] | > 10 |  | > 10 | > 10 | > 10
CS(=O)(=O)c1ccc(NN=C(C#N)C(=O)c2ccc(-c3ccccc3)cc2)cc1 [Example 11] | > 10 |  | > 10 | > 10 | > 10
N#CC(=NNc1ccc(Cl)cc1)C(=O)c1ccc(-c2ccccc2)cc1 [Example 13] | > 10 | > 10 | > 10 | > 10 | > 10
CC(=O)N(N=C(C#N)C(=O)c1ccc(Cl)cc1)c1ccc(Cl)cc1 [Example 14] | > 10 | > 10 | > 10 | 0.5 to 10 (≈ 0.18 to 3.6 µg/mL) | > 10
Cc1c(C(=O)C(C#N)=NNc2ccc([N+](=O)[O-])cc2)sc2ccc(Cl)cc12 [Example 15] | < 0.5 | > 10 | > 10 | < 0.5 | 0.5 to 10 (≈ 0.199 to 3.99 µg/mL)
Cc1c(C(=O)C(C#N)=NNc2ccc(C(C)C)cc2)sc2ccc(Cl)cc12 [Example 16] | 0.5 to 10 | > 10 | > 10 | 0.5 to 10 (≈ 0.198 to 3.96 µg/mL) | > 10
N#CC(=NNc1ccc([N+](=O)[O-])cc1)C(=O)c1ccc(Cl)cc1 [Example 17, 2-(4-nitrophenyl)hydrazono-3-oxo-3-(4-chlorophenyl)propionitrile] | < 0.5 | 0.5 to 10 (≈ 0.164 to 3.29 µg/mL) | > 10 | < 0.5 | < 0.5
N#CC(=NNc1ccc(OC(F)(F)F)cc1)C(=O)c1ccc(Cl)cc1 [Example 18] | 0.5 to 10 | 0.5 to 10 (≈ 0.184 to 3.68 µg/mL) | > 10 | 0.5 to 10 (≈ 0.184 to 3.68 µg/mL) | 0.5 to 10 (≈ 0.184 to 3.68 µg/mL)
N#CC(=NNc1ccc(Cl)cc1)C(=O)c1ccc(Cl)cc1 [Example 19] | 0.5 to 10 | > 10 | > 10 | 0.5 to 10 (≈ 0.159 to 3.18 µg/mL) | > 10
N#CC(=NNc1cc(C(F)(F)F)cc(C(F)(F)F)c1)C(=O)c1ccccc1 [Example 20] | 0.5 to 10 | 0.5 to 10 (≈ 0.193 to 3.85 µg/mL) | > 10 | 0.5 to 10 (≈ 0.193 to 3.85 µg/mL) | > 10
N#CC(=NNc1ccc(F)cc1)C(=O)c1ccc(OC(F)(F)F)cc1 [Example 21] | 0.5 to 10 | 0.5 to 10 (≈ 0.176 to 3.51 µg/mL) | > 10 | 0.5 to 10 (≈ 0.176 to 3.51 µg/mL) | > 10
N#CC(=NNc1ccc([N+](=O)[O-])cc1)C(=O)c1cccc(Cl)c1 [Example 22] | > 10 |  | > 10 | > 10 | > 10
N#CC(=NNc1ccc([N+](=O)[O-])cc1)C(=O)c1ccccc1 [Example 23] | > 10 | 0.5 to 10 (≈ 0.147 to 2.94 µg/mL) | > 10 | 0.5 to 10 (≈ 0.147 to 2.94 µg/mL) | > 10
